The values below come from patent US9062039B2, “Therapeutic compounds” (CHANGZHOU LE SUN PHARMACEUTICALS LIMITED, priority 2012, dated 2015).

In data set [1] the test system is HCT-116 (human colon carcinoma). The data set can be described thus: 48h MTT proliferation assay. Format: cell-based.
Another data set has as its system Patient CLL B-cells. The data set can be described thus: Ex vivo CLL assay (Annexin V apoptosis, flow cytometry). Format: cell-based, human. Conditions: up to 48 h. On the technique in general: In flow cytometry, cells or beads pass a laser one at a time.
Another data set deals with Normal T-cells. Described as above. The class given is cell-based, human. Conditions: up to 48 h.
For data set [2], the system named is MCF-7 (human breast carcinoma). The experiment in a line: 48h MTT proliferation assay. Format: cell-based. (In general: Formazan colour is commonly taken as a measure of viable cells.)
The subject of the next data set is Normal B-cells. The data set can be described thus: Ex vivo CLL assay (Annexin V apoptosis, flow cytometry). The class given is cell-based, human. The conditions noted are these: up to 48 h.
The nature of data set [3]: Determination of pharmacokinetics in mice. The class given is in vivo. The conditions noted are these: male, CD1, mouse, plasma; Mice PK, 10 mg/kg, po; read-out: Oral bioavailability F %. As for the experimental part:
For PK measurements male adult CD1 mice weighing 25-30 g (Charles River) are split into weight matched groups of 3 per group. The mice were held at the scruff of the neck and orally dosed via a metal gavage directly into the stomach. Immediately after dosing mice are returned to their cage, plastic box cage with sawdust bedding, and food and water available. Blood samples were collected from the mouse under anaesthesia by cardiac puncture using a 1 mL syringe and 25 gauge needle at time zero and at intervals up to 8 h. Harvested blood was centrifuged at 7000×G for 2 minutes, and the plasma aspirated and frozen at −20° C. until analysis. Quantitative compound level analysis was carried out using LC-MS/MS methods. Pharmacokinetic data derived using PK Solutions 2.0, non-compartmental analysis. Oral bioavailability (% F) was calculated by taking the ratio of dose-normalised AUC values from oral versus parenteral dosing.

Data set [4] concerns MCL1, BCL2, XIAP, CCND1 and CCND2 expression in CLL cells. The data set can be described thus: Gene expression profiling (Affymetrix microarray). Format: cell-based, human. From the text:
The detailed protocol for sample preparation and microarray processing is available from Affymetrix (http://www.affymetrix.com). […] After second strand synthesis, the resulting cDNA was subjected to an in vitro transcription reaction using a Bioarray kit (Enzo Diagnostics, New York, N.Y., USA) to generate biotinylated cRNA. This was subsequently fragmented and hybridized to the Affymetrix U133 2.0 Gene Chips. After hybridization, each microarray was washed, stained and scanned with an argon-ion confocal laser, with excitation at 488 nm and detection at 570 nm. The significance of differences between experimental conditions was determined using the Student's t test for paired and unpaired observations. To assess the interaction between agents, the median effect method was employed using CalcuSyn software (CalcuSyn; Biosoft International, Ferguson, Mo.). The combination index was calculated for the two-drug combination using an experimentally determined fixed concentration ratio. […] Affymetrix gene expression data were processed using Partek Genomics Suite (Partek Inc. Saint Louis, USA).

Data set [5] relates to primary CLL cells co-cultured with CD40L-expressing mouse embryonic fibroblasts. The experiment in a line: Synergy between CDKI-73 and fludarabine under CD40L co-culture. Format: cell-based, human. Conditions: CDKI-73 combined with fludarabine, other two additive.
Description: Lymphocytes were separated using Ficoll-Hypaque (Sigma, Poole, UK) and autologous plasma was collected for use in some experiments. Separated lymphocytes were maintained in RPMI medium supplemented with 10% fetal bovine serum (FBS), penicillin (50 U/ml), streptomycin (50 μg/ml) and recombinant human IL-4 (R and D Systems, Abingdon, UK) (5 ng/ml). […] The significance of differences between experimental conditions was determined using the Student's t test for paired and unpaired observations. To assess the interaction between agents, the median effect method was employed using CalcuSyn software (CalcuSyn; Biosoft International, Ferguson, Mo.). The combination index was calculated for the two-drug combination using an experimentally determined fixed concentration ratio.
The subject of data set [6] is MCL1 transcription in CLL cells. The experiment in a line: Real-time reverse transcription-PCR of MCL1. Format: cell-based, human. The conditions noted are these: 4 h, with and without CD40L co-culture. On the procedure: CDKI-73, 100:1) for 4 h using the method described by Walsby et al. (Oncotarget 3, 525-34 (2012)).
The subject of data set [7] is primary CLL cells co-cultured with CD40L-expressing mouse embryonic fibroblasts. Conditions: fludarabine alone; Walsby et al. 2012; cited from earlier work.
[8] abbreviates: HCT-116, read-out: 48h-MTT Anti-proliferative activity GI50 HCT-116 (human colon carcinoma), Table 2, 48 h.
The mark [9] stands for this setting: HCT-116, read-out: 48h-MTT cytotoxicity GI50 HCT-116, Table 1, 48 h.
[10] abbreviates: MCF7, read-out: 48h-MTT Anti-proliferative activity GI50 MCF-7 (human breast carcinoma), Table 2, 48 h.
Setting [11] is: MCF7, read-out: 48h-MTT cytotoxicity GI50 MCF-7, Table 1, 48 h.

Read-outs that look alike come from different tables or passages of the source.

As to `CNc1nc(C)c(-c2nc(Nc3cccc(S(N)(=O)=O)c3)ncc2C#N)s1` [Comparator, 3-(5-cyano-4-(4-methyl-2-(methylamino)thiazol-5-yl)pyrimidin-2-ylamino)benzenesulfonamide, reference compound], the 50% growth inhibitory concentration (GI50) (as a rule, the concentration giving 50% growth inhibition) was 430 nM in [1] (setting [8]), 440 nM in data set [1] (setting [9]), 480 nM in data set [2] (setting [10]) and 480 nM in [2] (setting [11]). Also, the “Ex vivo efficacy, LD50 Patient CLL B-cells” value in the data set on Patient CLL B-cells is 0.43 µM. Moreover, the “Ex vivo efficacy, LD50 Normal T-cells” value in the data set with Normal T-cells worked out at 350 µM. The “Ex vivo efficacy, LD50 Normal B-cells” value with Normal B-cells was found to be 89 µM. Also, the bioavailability (as a rule, dose-corrected exposure relative to a reference, in per cent) in data set [3] is 7%.

Turning to `CNc1nc(C)c(-c2nc(Nc3cccc(S(N)(=O)=O)c3)ncc2F)s1` [Example 1, 3-(5-Fluoro-4-(4-methyl-2-(methylamino)thiazol-5-yl)pyrimidin-2-ylamino)benzene sulfonamide], the GI50 in [1] (setting [8]) stood at 60 nM; in [1] (setting [9]) it was 30 nM; in data set [2] (setting [10]), 50 nM; in data set [2] (setting [11]) it was 30 nM. For the same molecule, the “Ex vivo efficacy, LD50 Patient CLL B-cells” value in the data set on Patient CLL B-cells worked out at 0.08 µM. For the same molecule, the “Ex vivo efficacy, LD50 Normal T-cells” value in the data set on Normal T-cells was 506.3 µM. Further, the “expression of MCL1, BCL2, XIAP and CCND1 and D2” value in [4] (combination 0.1 μM CDKI-73 and 10 μM fludarabine, 4 h) is reported as “marked repression”. The “expression of MCL1, BCL2, XIAP and CCND1 and CCND2” value in data set [4] (single agent, 0.1 μM CDKI-73, 4 h) is “down regulated”. In [5], the “samples tested that showed cytotoxic synergy” value is recorded as 8/10. Also, the “MCL1 transcription (QRT-PCR)” value in data set [6] (CDKI-73 in combination with fludarabine (100:1)) and in [6] (single agent) was “significantly inhibited” in each case. Also, the “Ex vivo efficacy, LD50 Normal B-cells” value with Normal B-cells came to 40.5 µM. For the same molecule, in [3], the bioavailability came to 56%.

Take `CNc1nc(C)c(-c2nc(Nc3cccc(S(N)(=O)=O)c3)ncc2Cl)s1` [Example 3, 3-(5-chloro-4-(4-methyl-2-(methylamino)thiazol-5-yl)pyrimidin-2-ylamino)benzene sulfonamide]: the GI50 in [1] (setting [9]) is 30 nM; in [2] (setting [11]), 60 nM.

With `Nc1nc(F)nc2c1ncn2[C@@H]1O[C@H](CO)[C@@H](O)[C@@H]1O` [fludarabine], the “cytotoxic effects of fludarabine under CD40L co-culture” value in [7] is “completely abrogates”.
